≈ marks a conversion by molar mass, not a printed value.
Experiments:
[1] = Cytotoxicity against mouse MA-10 cells at 100 uM after 2 hrs by MTT assay; type: cell-based; details: ma-10, 2 h
[2] = Cytotoxicity against mouse MA-10 cells at 0.1 to 100 uM after 2 hrs by MTT assay; type: cell-based; details: ma-10, 2 h
[3] = biological target: Glycogen synthase kinase-3 beta (Homo sapiens, UniProt P49841); test: Inhibition of human GSK3beta-mediated YRRAAVPPSPSLSRHSSPHQ(pS)EDEEE phosphorylation
[4] = Kinetic aqueous solubility of the compound by HPLC analysis; type: physicochemical; details: read-out: Kinetic_solubility

Chain of Glycogen synthase kinase-3 beta (P49841 whole entry): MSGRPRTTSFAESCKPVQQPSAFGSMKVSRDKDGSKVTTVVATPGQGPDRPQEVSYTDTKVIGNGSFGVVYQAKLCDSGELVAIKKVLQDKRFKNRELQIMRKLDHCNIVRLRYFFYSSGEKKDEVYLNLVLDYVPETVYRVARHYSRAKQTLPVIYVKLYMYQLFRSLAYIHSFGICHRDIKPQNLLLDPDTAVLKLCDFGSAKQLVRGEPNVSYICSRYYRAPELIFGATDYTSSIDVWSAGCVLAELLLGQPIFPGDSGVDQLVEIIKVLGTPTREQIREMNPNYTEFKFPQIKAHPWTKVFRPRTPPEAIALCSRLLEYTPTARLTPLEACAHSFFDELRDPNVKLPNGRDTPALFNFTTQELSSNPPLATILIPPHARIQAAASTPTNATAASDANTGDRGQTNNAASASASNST

| Structure (SMILES) | Activity [1] | Activity [2] | IC50 [3] | solubility kinetic [4] |
| --- | --- | --- | --- | --- |
| O=C1NC(=O)C(c2cn3c4c(cc(F)cc24)CNCC3)=C1c1coc2ccccc12 | Toxic | Toxic | 3.7 nM |  |
| O=C1NC(=O)C(c2cn3c4c(cc(Br)cc24)CNCC3)=C1c1coc2ccccc12 | Toxic | Toxic | 11.5 nM |  |
| O=C1NC(=O)C(c2cn3c4c(cccc24)CN(C(=O)c2cnccn2)CC3)=C1c1coc2ccccc12 | Toxic | Toxic | 0.2 nM |  |
| O=C1NC(=O)C(c2cn3c4c(cccc24)CN(C(=O)Cc2ccncc2)CC3)=C1c1coc2ccccc12 | Toxic | Toxic | 0.59 nM |  |
| O=C1NC(=O)C(c2cn3c4c(cc(F)cc24)CN(C(=O)N2CCCCC2)CC3)=C1c1coc2ccccc12 |  | Non-toxic | 1.9 nM |  |
| O=C1NC(=O)C(c2cn3c4c(cc(F)cc24)CN(C(=O)N2CCC(N4CCCCC4)CC2)CC3)=C1c1coc2ccccc12 | Toxic | Toxic | 0.53 nM |  |
| O=C1NC(=O)C(c2cn3c4c(cc(F)cc24)CN(C(=O)N2CCOCC2)CC3)=C1c1coc2ccccc12 | Toxic | Toxic | 0.013 nM |  |
| O=C1NC(=O)C(c2cn(CCO)c3ccc(Br)cc23)=C1c1coc2ccccc12 |  |  | 21.4 nM |  |
| O=C1NC(=O)C(c2cn(CCO)c3ccc(F)cc23)=C1c1coc2ccccc12 |  |  | 4.8 nM |  |
| O=C1NC(=O)C(c2cn(CCCO)c3ccc(F)cc23)=C1c1coc2ccccc12 |  |  | 15 nM |  |
| NCCn1cc(C2=C(c3coc4ccccc34)C(=O)NC2=O)c2cc(Br)ccc21 |  |  | 116 nM | 180 µg/mL (≈ 400 µM) |
| NCCn1cc(C2=C(c3coc4ccccc34)C(=O)NC2=O)c2cc(F)ccc21 |  |  | 41.1 nM |  |
| CNCCCn1cc(C2=C(c3coc4ccccc34)C(=O)NC2=O)c2cc(Br)ccc21 |  |  | 404 nM |  |
| CNCCCn1cc(C2=C(c3coc4ccccc34)C(=O)NC2=O)c2cc(F)ccc21 |  |  | 202 nM |  |
| COCCn1cc(C2=C(c3coc4ccccc34)C(=O)NC2=O)c2ccccc21 | Non-toxic | Non-toxic | 19.8 nM |  |
| COCCn1cc(C2=C(c3coc4ccccc34)C(=O)NC2=O)c2cc(F)ccc21 |  |  | 39.7 nM |  |

| Structure (SMILES) | Activity [1] | Activity [2] | IC50 [3] | solubility kinetic [4] |
| --- | --- | --- | --- | --- |
| COCCn1cc(C2=C(c3coc4ccccc34)C(=O)NC2=O)c2cc(Br)ccc21 |  |  | 82.3 nM |  |
| COCCn1cc(C2=C(c3coc4ccccc34)C(=O)NC2=O)c2cc(F)c(F)cc21 | Toxic | Toxic | 35.7 nM |  |
| Cn1cc(C2=C(c3coc4ccccc34)C(=O)NC2=O)c2cc(Br)cnc21 | Non-toxic | Non-toxic | 5.3 nM |  |
| COCCn1cc(C2=C(c3coc4ccccc34)C(=O)NC2=O)c2cc(Br)cnc21 | Non-toxic | Non-toxic | 25.2 nM |  |
| Cn1cc(C2=C(c3coc4ccccc34)C(=O)NC2=O)c2cccnc21 |  |  | 17.6 nM |  |
| COCCn1cc(C2=C(c3coc4ccccc34)C(=O)NC2=O)c2cccnc21 | Toxic | Toxic | 58.2 nM |  |
| COc1cc2c(C3=C(c4coc5ccccc45)C(=O)NC3=O)cn(C)c2cn1 |  | Non-toxic | 65.9 nM |  |
| COCCn1cc(C2=C(c3coc4ccccc34)C(=O)NC2=O)c2cc(OC)ncc21 |  |  | 127 nM |  |
| Cn1cc(C2=C(c3cnc4ccccn34)C(=O)NC2=O)c2cc3c(cc21)OCO3 |  |  | 5.3 nM |  |
| Cn1cc(C2=C(c3cnc4ccccn34)C(=O)NC2=O)c2cc(Br)ccc21 |  | Non-toxic | 0.87 nM | 35 µg/mL (≈ 83.1 µM) |
| COCCc1cccc2c(C3=C(c4coc5ccccc45)C(=O)NC3=O)cn(C)c12 | Non-toxic | Non-toxic | 11.2 nM |  |
| Cn1cc(C2=C(c3coc4ccccc34)C(=O)NC2=O)c2cccc(CCOC(C)(C)C)c21 |  |  | 148 nM |  |
| COCCc1cccc2c(C3=C(c4coc5ccccc45)C(=O)NC3=O)cn(CCOC)c12 | Toxic | Toxic | 114 nM |  |
| O=C1NC(=O)C(c2cn3c4c(cccc24)CNCC3)=C1c1coc2ccccc12 |  |  | 4.2 nM | 240 µg/mL (≈ 626 µM) |
| Cn1cc(C2=C(c3coc4ccccc34)C(=O)NC2=O)c2cc(Br)ccc21 | Non-toxic | Non-toxic |  |  |
